Measurements: PubChem BioAssay AID1259353

Each compound was assayed on Trichuris muris adults ex vivo, motility imaging, 24 h (assay: Trichuris muris adult motility inhibition, dose response, whole organism, INVAPP motility imaging, 24 h (AID 1259353)).

| EC50 [µM] | Structure (SMILES) |
| --- | --- |
| 70 | COc1ccccc1CNc1nc(NCCOc2ccccc2Cl)c2sccc2n1 |
| 26 | COCCNc1nc(NCCOc2ccccc2Cl)c2sccc2n1 |
| 44 | CNc1nc(NCCOc2ccccc2Cl)c2sccc2n1 |
| 28 | CNc1nc(NCCOc2ccccc2)c2sccc2n1 |
